What was measured:
rat brain homogenate = test: Formation of lipid peroxide through the autoxidation of rat brain homogenate (TBA method); type: biochemical; conditions: for Amount of MDA: 37° C. 30 min, mean ± standard deviation (n = 3); for Rate of Suppression: suppression of lipid peroxide formation
Experimental: The present compound was examined for the effect on the formation of lipid peroxide through the autoxidation of a rat brain homogenate.
Wistars rat (purchased from SLC Japan (Kabushiki Kaisha)) were decapitated without anesthesia and the skull was immediately opened and the brain removed. The brain taken out was washed with ice-cooled, phoshate buffered saline (PBS (50 mM, pH 7.4)), lightly blotted with filter paper and weighed. Four times ice-cooled PBS was added to the brain and homogenized in ice. The homogenate was centrifuged at 1000×g (2700 rpm) for 10 min at 0° C. The supernate thus obtained was used for the test. To 100 μl of the test compound were added 700 μl of PBS and 200 μl of the supernate of the brain homogenate, and incubated at 37° C. for 30 min. A control group and a blank group were incubated with PBS, with the blank group at 0° C. for 30 min. Then, 200 μl of 35% perchloric acid was added to cease the reaction and the mixture was centrifuged at 1300×g (3200 rpm) for 10 min at 0° C. Using the supernate as a sample, the amount of malondialdehyde (MDA) formed was determined by thiobarbituric acid colorimetric method (TBA method).
To 0.11 g (0.5 mmol) of 1,1,3,3-tetraethoxypropane was added methanol to make 50 ml of volume. This solution was diluted 10^3, 3×10^3 and 10^4-folds with methanol and used as the standards (10 μM, 3 μM, 1 μM). Methanol was assigned to 0 μM.
To 1 ml of each of the samples or the standards were added 0.2 ml of 8.1% sodium dodecylsulfate (SDS), 1.5 ml of 20% acetate buffer (pH 3.5) and 0.8% thbiobarbituric acid (TBA) and incubated in a boiling water bath for 60 min. After ice-cooling to cease the reaction, 4 ml of butanol-pyridine (15:1) was added and mixed well. After centrifugation at 1200×g (3000 rpm) for 10 min, the fluorescence intensity of the butanol-pyridine layer was measured at the wavelength of 553 nm with the excitation wavelength of 515 nm.
The rate of suppression of lipid peroxide formation was calculated according to the following equation for each test compound.
Rate of suppression of lipid peroxide formation (%)=[1-(C-A/B-A)]×100
A: Amount (μM) of formed MDA for the blank group
B: Amount (μM) of formed MDA for the control group
C: Amount (μM) of formed MDA for a test compound group

[1] = tested on: acetaminophen-induced hepatopathy; test: Effect on acetaminophen-induced hepatopathy in mice; type: in vivo; conditions: male ddy mice
Experimental: The present compound was examined for the effect on acetaminophen-induced hepatopathy in mice.
The compound of Example 2 (abbreviated to ETS-GS-Na) 0.1 mmol/ 10 ml/kg, i.p.
7-week old male ddy mice purchased from SLC Japan (Kabushiki Kaisha) were used for the test following a 24-hour fasting.
Hepatopathy was induced by oral administration of 250 mg/10 ml/kg acetaminophen (dissolved by warming).
24 hours after the oral administration of acetaminophen, blood were sampled for measurement of GOP and GPT activities, indices of hepatopathy. The mice were kept on fasting for 48 hours until the blood sampling was made.
The test compound was intraperitoneally injected 30 min before the administration of acetaminophen.

[2] = tested on: buthionine sulfoximine (BSO)-induced cataract; test: Effect on BSO-induced cataract in rats; type: in vivo; conditions: newborn SD rats
Experimental: The present compound was examined for the effect on buthionine sulfoximine (BSO)-induced cataract in rats.
The compound of Example 2 (abbreviated to ETS-GS-Na) 0.1 mmol/10 ml/kg, i.p.
The test was performed according to the method of Maitra et al.
Indrani Maitra, Elena Serbinova et al., α-Lipoic Acid Prevents Buthionine Sulfoximine-induced Cataract Formation in Newborn Rats Free Radical Biology & Medicine, Vol. 18, No. 4, pp.823-829, 1995.
28 to 36-hour old SD rats purchased from SLC Japan (Kabushiki Kaisha) were used for the test.
Cataract was induced by subcutaneously administering 3 mmol/kg of BSO at 8:00 A.M. and 4:00 P.M. for 2 days.
Observation of cataract was performed using a slit lamp microscope after the newborn rats opened their eyes after the BSO administration. The opacity of each of the lenses was assessed and classified into one of the following 0-5 grades.
0: a clear lens without opacity
1: a lens with opacities in part of the equatorial region
2: a lens with opacities along the equatorial region
3: a lens with opacities in part of the cortex
4: a lens with opacities in the whole cortex
5: a lens with opacities advancing up to the central region.
The test compound was intraperitoneally administered 4 and 12 hours after the administration of BSO.

[3] = 0.1 mmol/10 ml/kg i.p. 30 min before acetaminophen 250 mg/kg p.o., blood 24 hours after acetaminophen

Compound: Cc1c(C)c2c(c(C)c1OC(=O)C(CC(=O)O)SC[C@H](NC(=O)CC[C@H](N)C(=O)O)C(=O)NCC(=O)O)CCC(C)(CCCC(C)CCCC(C)CCCC(C)C)O2 (stereo partly drawn) [Example 1, S-[2-Carboxy-1-(α-tocopheryl-6-yl-oxycarbonyl)Ethyl]glutathione]
- Amount of MDA (rat brain homogenate; 3 × 10^−5M): 0.838 ± 0.056 µM
- Rate of Suppression (rat brain homogenate; 3 × 10^−5M): 93.94 ^*3%
- Amount of MDA (rat brain homogenate; 3 × 10^−6M): 4.079 ± 0.126 µM
- Rate of Suppression (rat brain homogenate; 3 × 10^−6M): 40.17 ^*3%
- Amount of MDA (rat brain homogenate; 10^−5M): 1.338 ± 0.039 µM
- Rate of Suppression (rat brain homogenate; 10^−5M): 85.64 ^*3%
- Amount of MDA (rat brain homogenate; 10^−6M): 5.208 ± 0.083 µM
- Rate of Suppression (rat brain homogenate; 10^−6M): 21.43 ^*2%

Compound: Cc1c(C)c2c(c(C)c1OC(=O)C(CC(=O)NCCS(=O)(=O)O)SC[C@H](NC(=O)CC[C@H](N)C(=O)O)C(=O)NCC(=O)O)CCC(C)(CCCC(C)CCCC(C)CCCC(C)C)O2 (stereo partly drawn) [Example 2, S-[2-(N-Carbonylaminoethylsulfonic acid)-1-(α-tocopheryl-6-yl-oxycarbonyl)ethyl]glutathione]
- effect on acetaminophen-induced hepatopathy ([1]; 0.1 mmol/10 ml/kg i.p.): significant suppressing effect
- blood GOT activity [1, 3]: 336±89 IU/1
- blood GPT activity [1, 3]: 47±22 IU/1
- suppression of BSO-induced cataract ([2]; 0.1 mmol/10 ml/kg i.p.): complete suppression
- average grade of lens opacity ([2]; BSO 3 mmol/kg s.c., 0.1 mmol/10 ml/kg i.p. 4 and 12 hours after BSO, slit lamp, grades 0-5): 0

Compound: S-[2-(N-Carbonylaminoethylsulfonic acid)-1-(α-tocopheryl-6-yl-oxycarbonyl)ethyl]cysteine [Example 5]
- Amount of MDA (rat brain homogenate; 3 × 10^−5M): 0.980 ± 0.249 µM
- Rate of Suppression (rat brain homogenate; 3 × 10^−5M): 91.59 ^*3%
- Amount of MDA (rat brain homogenate; 3 × 10^−6M): 4.890 ± 0.052 µM
- Rate of Suppression (rat brain homogenate; 3 × 10^−6M): 26.71 ^*2%
- Amount of MDA (rat brain homogenate; 10^−5M): 4.090 ± 0.348 µM
- Rate of Suppression (rat brain homogenate; 10^−5M): 39.98 ^*2%
- Amount of MDA (rat brain homogenate; 10^−6M): 5.022 ± 0.060 µM
- Rate of Suppression (rat brain homogenate; 10^−6M): 24.52 ^*2%
